Molecular target: T1, 3-hydroxy-3-methylglutaryl-coenzyme A reductase (Homo sapiens, UniProt P04035)
T1 sequence (P04035 whole entry): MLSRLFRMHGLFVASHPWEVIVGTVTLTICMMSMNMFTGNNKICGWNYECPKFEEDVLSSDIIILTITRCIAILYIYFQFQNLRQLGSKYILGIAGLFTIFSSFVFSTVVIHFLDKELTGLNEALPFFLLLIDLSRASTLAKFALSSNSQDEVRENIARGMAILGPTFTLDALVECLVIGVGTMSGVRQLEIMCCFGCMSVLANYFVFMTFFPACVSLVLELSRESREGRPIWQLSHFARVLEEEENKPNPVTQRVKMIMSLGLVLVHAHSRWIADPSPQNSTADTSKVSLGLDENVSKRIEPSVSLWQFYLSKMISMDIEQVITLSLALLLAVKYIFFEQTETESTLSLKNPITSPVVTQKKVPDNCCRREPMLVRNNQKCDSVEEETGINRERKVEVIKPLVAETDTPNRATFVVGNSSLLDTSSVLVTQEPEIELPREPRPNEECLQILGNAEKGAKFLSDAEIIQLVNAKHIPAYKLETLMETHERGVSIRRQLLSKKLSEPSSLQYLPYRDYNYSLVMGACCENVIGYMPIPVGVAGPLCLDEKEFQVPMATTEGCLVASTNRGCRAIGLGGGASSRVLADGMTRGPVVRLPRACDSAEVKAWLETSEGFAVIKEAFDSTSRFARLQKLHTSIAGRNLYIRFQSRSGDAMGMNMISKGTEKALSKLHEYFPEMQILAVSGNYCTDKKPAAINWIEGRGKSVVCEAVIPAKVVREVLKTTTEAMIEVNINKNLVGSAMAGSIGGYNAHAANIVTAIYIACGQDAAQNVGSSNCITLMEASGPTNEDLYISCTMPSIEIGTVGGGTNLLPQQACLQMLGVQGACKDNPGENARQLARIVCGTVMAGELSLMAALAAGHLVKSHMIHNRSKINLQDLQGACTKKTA
Assay: Inhibition of human HMGCoA reductase
Settings: not given; call rule not given here

Compound	IC50
CCCCCCCC/C=C\CCCCCCCC(=O)O [OLEIC ACID]	Not Active
CCCCCCCCCCCCCCCCCC(=O)O [STEARIC ACID]	Not Active

Same assay, conditions: read-out: IC50

IC50 [µM]	Compound
3	CCCCC#CC#CCCCCCC(=O)O
5	CCCCCCCCC#CCCCCCCCC(=O)O
7	CCCCCCCCC#CC#CC(O)CCCCC(=O)O (centres undefined)
1.5	CCCCCCCCC#CC#C/C=C\CCCC(=O)O
5	CCCCCCCCC#CC#CC1OC1CCCC(=O)O (centres undefined)
0.5	CCCCCCCCC#CC#C/C=C/CCCC(=O)O
5	CCCCCCCCC#CC#CCCCCCC(=O)O

Source: ChEMBL document CHEMBL1147276, “Novel Acetylenic Acids from the Root Bark of Paramacrolobium caeruleum: Inhibitors of 3-Hydroxy-3-methyl-glutaryl Coenzyme A Reductase” (J Nat Prod, 1989)
